Measurements: patent US20210254006A1, “METHODS OF CULTURING AND/OR EXPANDING STEM CELLS AND/OR LINEAGE COMMITTED PROGENITOR CELLS USING LACTAM COMPOUNDS” (IDEAYA BIOSCIENCES, INC., priority 2018, published 2021)
Each block holds one molecule with its values, some of them ahead of it.

Columns and labels:
hAhR = molecular target: T1, hAhR (Homo sapiens, UniProt P35869); test: AhR antagonist DRE-luciferase reporter transcriptional assay (TCDD-induced) in HEPG2 DRE-Luc cells; assay type: cell-based; conditions: relative IC50, HEPG2 DRE-Luc cells, 3 nM TCDD, 24 h incubation; read-out: IC50 hAhR (antagonist mode)
T1 construct: endogenous in cells; host or cells: HEPG2 cells with stably integrated Cignal XRE (DRE) luciferase reporter
T1 sequence (P35869 11-848): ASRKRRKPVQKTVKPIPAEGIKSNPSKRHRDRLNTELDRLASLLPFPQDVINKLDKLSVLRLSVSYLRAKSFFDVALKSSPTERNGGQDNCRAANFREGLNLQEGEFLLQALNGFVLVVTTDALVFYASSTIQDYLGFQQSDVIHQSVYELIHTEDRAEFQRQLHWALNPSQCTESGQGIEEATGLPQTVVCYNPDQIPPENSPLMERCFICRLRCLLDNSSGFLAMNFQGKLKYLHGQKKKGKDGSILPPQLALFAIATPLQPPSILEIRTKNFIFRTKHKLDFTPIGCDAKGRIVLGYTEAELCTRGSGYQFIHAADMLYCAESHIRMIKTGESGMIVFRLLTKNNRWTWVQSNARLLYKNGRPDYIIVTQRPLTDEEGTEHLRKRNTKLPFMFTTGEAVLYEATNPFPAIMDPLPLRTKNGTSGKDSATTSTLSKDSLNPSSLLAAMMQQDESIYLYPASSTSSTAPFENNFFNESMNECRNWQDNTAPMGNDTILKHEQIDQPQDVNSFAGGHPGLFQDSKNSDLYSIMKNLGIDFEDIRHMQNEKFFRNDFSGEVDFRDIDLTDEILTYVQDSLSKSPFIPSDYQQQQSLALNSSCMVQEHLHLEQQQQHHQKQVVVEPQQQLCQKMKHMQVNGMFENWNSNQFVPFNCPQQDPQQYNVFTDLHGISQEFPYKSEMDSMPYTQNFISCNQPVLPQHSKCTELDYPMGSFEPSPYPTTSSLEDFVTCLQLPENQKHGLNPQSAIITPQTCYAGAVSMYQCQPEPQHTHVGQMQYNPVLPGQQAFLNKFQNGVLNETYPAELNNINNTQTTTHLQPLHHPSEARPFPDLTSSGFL
Protocol: The ability of compounds of formula (I) to antagonize AhR was tested as follow. HEPG2 and HEPA1C1C7 cells were maintained in MEM and αMEM without nucleosides supplemented with 10% heat inactivated FBS respectively. Stably integrated DRE-luciferase cell lines were generated by transducing the both cell lines with Cignal XRE luciferase reporter (Qiagen) lentiviral particles according to the manufacturer protocol. For both cell lines, stably integrated reporter cell lines were selected for the presence of 2 μg/mL puromycin. Following selection of stably integrated cell line pools, clonal cell lines were isolated by limiting dilution in 96-well plates. […]
To determine AhR antagonist activity of compound of formula (I), the compounds were added in a semi-log dose response using a D300e Digital Dispenser (Tecan) followed normalization with vehicle (DMSO). […] Firefly luciferase activity was measured immediately following the addition of 50 μL Luciferase Assay Reagent (Promega). The percent maximal activity for each point was determined using the following equation: (RLUsample−RLUvehicle−TCDD)/(RLUvehicle+TCDD RLUvehicle−TCDD)*100. The relative IC50, defined as the compound concentration required to reduce the TCDD induced response between the top and bottom plateau of each individual dose response curve by half, for each compound was determined using Prism7 (GraphPad Software).

[1] = tested on: human CD34+ hematopoietic stem cells (HSC); test: Hematopoietic stem cell expansion, CD34+ cells by flow cytometry after 12-day culture; assay type: cell-based
Protocol: The ability of compounds of formula (I) to facilitate hematopoietic stem cell expansion was determined by testing 1-methyl-7-(2-methyl-4-(6-(trifluoromethyl)pyrido[3,2-d]pyrimidin-2-yl)phenyl)-6,7-dihydro-1H-pyrazolo[3,4-f][1,4]oxazepin-8(5H)-one (compound 1) and 3-methyl-5-(2-methyl-4-(6-(trifluoromethyl)quinazolin-2-yl)phenyl)-6,7-dihydropyrazolo[1,5-a]pyrazin-4(5H)-one (compound 2) as follows.
Isolated human CD34^+ hematopoietic stem cells (HSC) were obtained from AllCells (Alameda, Calif., USA). 5,000 HSC per well were cultivated in 100 μL HSC expansion media StemSpan SFEM (StemCell Technologies; Vancouver, BC, Canada) containing 1× antibiotics (Life Technologies, Carlsbad, Calif., USA), 100 ng/mL thrombopoietin, 100 ng/mL IL-6, 100 ng/mL Flt3 ligand and 100 ng/mL stem cell factor (all R&D Systems, Minneapolis, Minn., USA) in a flat bottom 96 well tissue culture plate. 100 μL of 3-fold serial diluted compound 1 or 2 (final concentration range 0.169-10,000 nM) was added at 2× of the final concentration to HSC culture and HSC culture plates were incubated in a humidity-controlled incubator at […], 5% CO2. After 12 days, the absolute viable cell counts from each well were determined. HSC were then stained in staining buffer composed of Hank's balanced salt solution with 2% fetal bovine serum and 2 mM EDTA (all Life Technologies) at 4° C. for 1 hour with anti-CD90 APC, anti-CD34 PerCP, anti-CD38 FITC, CD45RA PE-Cy7 and anti-CD133 PE antibodies (all BD Biosciences, San Jose, Calif., USA). HSC were washed with staining buffer and HSC were analyzed by multicolor phenotype flow cytometry. The percentages of CD34^+ cells were determined as percentage of total population. Absolute counts of each population were calculated from the total number of viable cells multiplied by the percentage of each population. The EC50 value for the frequency of CD34+ cells, defined as the compound concentration with half maximal response on the dose response curve, was calculated using Prism 7 (GraphPad Software, La Jolla, Calif., USA).

[2] = compound concentration 3,333 nM

IC50 (hAhR): 200 to 500 nM
Structure (SMILES): Cc1cc(-c2ncc3cc(C(F)(F)F)ccc3n2)ccc1N1CCOc2cnn(CCO)c2C1=O [Example 034, 1-(2-hydroxyethyl)-7-(2-methyl-4-(6-(trifluoromethyl)quinazolin-2-yl)phenyl)-6,7-dihydro-1H-pyrazolo[3,4-f][1,4]oxazepin-8(5H)-one]

IC50 (hAhR): < 200 nM
Structure (SMILES): Cc1cc(-c2ncc3cc(C(F)(F)F)ccc3n2)ccc1N1CCOc2cn[nH]c2C1=O [Example 033, 7-(2-methyl-4-(6-(trifluoromethyl)quinazolin-2-yl)phenyl)-6,7-dihydro-1H-pyrazolo[3,4-f][1,4]oxazepin-8(5H)-one]

Structure (SMILES): Cc1cc(-c2ncc3nc(C(F)(F)F)ccc3n2)ccc1N1CCOc2cnn(C)c2C1=O [Example 001, 1-methyl-7-(2-methyl-4-(6-(trifluoromethyl)pyrido[3,2-d]pyrimidin-2-yl)phenyl)-6,7-dihydro-1H-pyrazolo[3,4-f][1,4]oxazepin-8(5H)-one]
CD34+ cell counts, fold expansion [1, 2]: 2.4 fold
frequency of CD34+ HSC, fold increase [1, 2]: 3.1 fold

Structure (SMILES): Cc1cc(-c2ncc3cc(C(F)(F)F)ccc3n2)ccc1N1CCn2ncc(C)c2C1=O [Example 002, 3-methyl-5-(2-methyl-4-(6-(trifluoromethyl)quinazolin-2-yl)phenyl)-6,7-dihydropyrazolo[1,5-a]pyrazin-4(5H)-one]
frequency of CD34+ HSC, fold increase ([1]; compound concentration 1,111 nM): 3.6 fold
CD34+ cell counts, fold expansion ([1]; compound concentration 10,000 nM): 4.0 fold
